Experimental data taken from patent US7416728B2, “Growth blocking agents” (Kyto Biopharma, Inc., priority 1992, dated 2008).

What was measured:
Acute leukemia = settings: drug combined with vitamin B12 depletion (nitrous oxide); acute leukemia/rats; cited from earlier work
Myelocytic leukemia = settings: drug combined with vitamin B12 depletion (nitrous oxide); myelocytic leukemia/rats; cited from earlier work
[1] = test system: Raji Burkitt lymphoma cells; test: Cell viability by reduction of tetrazolium dye, three days, with and without methotrexate; assay type: cell-based, human; settings: 100% lysis control = .047
Protocol: Antibody D2/20 at a range of concentrations is incubated with Raji Burkitt lymphoma cells in microtiter plates for three days with and without chemotherapeutic drugs. Cell viability is measured by reduction of tetrazolium dye. Only viable cells metabolize the dye to an insoluble, colored product which is subsequently solubilized and read in a spectrophotometer.

[2] = test system: Raji Burkitt lymphoma cells; test: Subcutaneous Raji Burkitt lymphoma in nu/nu mice, tumor size; assay type: in vivo
Protocol: Nu/nu mice are injected subcutaneously with 1 million Raji Burkitt lymphoma cells. After two weeks, barely palpable nodules are present at the injection site. Measurements are made in three dimensions with a planarimeter and equally sized tumors assigned to experimental groups of 10 mice. […] Therapy is administered once weekly. Controls of antibody and drug alone, as well as vehicle controls, are included. Mice are monitored visually for toxicity, death, and tumor size weekly for 8 weeks, at which time the experiment is terminated, the mice sacrificed, and the tumors removed and weighed.

SMILES: NC1(C(=O)O)CCCC1 [cycloleucine]
- Therapeutic Results (Acute leukemia): synergistic
- Therapeutic Results (Myelocytic leukemia): additive

SMILES: CN(Cc1cnc2nc(N)nc(N)c2n1)c1ccc(C(=O)N[C@@H](CCC(=O)O)C(=O)O)cc1 [Methotrexate, methotrexate]
- Therapeutic Results (Acute leukemia): synergistic
- cell viability, tetrazolium dye reading ([1]; antibody 0, methotrexate 0.1 micrograms/ml): .993
- cell viability, tetrazolium dye reading ([1]; antibody 0, methotrexate 1 micrograms/ml): .798
- average of serial tumor measurements converted to weight ([2]; week 1, methotrexate 5 Milligrams/M^2 i.v. once weekly): .07 grams
- average of serial tumor measurements converted to weight ([2]; week 1, methotrexate 10 Milligrams/M^2 i.v. once weekly): .05 grams
- average of serial tumor measurements converted to weight ([2]; week 1, methotrexate 50 Milligrams/M^2 i.v. once weekly): .04 grams
- average of serial tumor measurements converted to weight ([2]; week 2, methotrexate 5 Milligrams/M^2 i.v. once weekly): .14 grams
- average of serial tumor measurements converted to weight ([2]; week 2, methotrexate 10 Milligrams/M^2 i.v. once weekly): .12 grams
- average of serial tumor measurements converted to weight ([2]; week 2, methotrexate 50 Milligrams/M^2 i.v. once weekly): .10 grams
- average of serial tumor measurements converted to weight ([2]; week 3, methotrexate 5 Milligrams/M^2 i.v. once weekly): .43 grams
- average of serial tumor measurements converted to weight ([2]; week 3, methotrexate 10 Milligrams/M^2 i.v. once weekly): .30 grams
- average of serial tumor measurements converted to weight ([2]; week 3, methotrexate 50 Milligrams/M^2 i.v. once weekly): .25 grams
- average of serial tumor measurements converted to weight ([2]; week 4, methotrexate 5 Milligrams/M^2 i.v. once weekly): .70 grams
- average of serial tumor measurements converted to weight ([2]; week 4, methotrexate 10 Milligrams/M^2 i.v. once weekly): .53 grams
- average of serial tumor measurements converted to weight ([2]; week 4, methotrexate 50 Milligrams/M^2 i.v. once weekly): .41 grams
- average of serial tumor measurements converted to weight ([2]; week 5, methotrexate 5 Milligrams/M^2 i.v. once weekly): 1.2 grams
- average of serial tumor measurements converted to weight ([2]; week 5, methotrexate 10 Milligrams/M^2 i.v. once weekly): .92 grams
- average of serial tumor measurements converted to weight ([2]; week 5, methotrexate 50 Milligrams/M^2 i.v. once weekly): .73 grams
- average of serial tumor measurements converted to weight ([2]; week 6, methotrexate 5 Milligrams/M^2 i.v. once weekly): 2.6 grams
- average of serial tumor measurements converted to weight ([2]; week 6, methotrexate 10 Milligrams/M^2 i.v. once weekly): 2.1 grams
- average of serial tumor measurements converted to weight ([2]; week 6, methotrexate 50 Milligrams/M^2 i.v. once weekly): 1.4 grams
- average of serial tumor measurements converted to weight ([2]; week 7, methotrexate 5 Milligrams/M^2 i.v. once weekly): 4.8 grams
- average of serial tumor measurements converted to weight ([2]; week 7, methotrexate 10 Milligrams/M^2 i.v. once weekly): 4.8 grams
- average of serial tumor measurements converted to weight ([2]; week 7, methotrexate 50 Milligrams/M^2 i.v. once weekly): 2.3 grams
- average of serial tumor measurements converted to weight ([2]; week 8, methotrexate 5 Milligrams/M^2 i.v. once weekly): 7.2 grams
- average of serial tumor measurements converted to weight ([2]; week 8, methotrexate 10 Milligrams/M^2 i.v. once weekly): 6.9 grams
- average of serial tumor measurements converted to weight ([2]; week 8, methotrexate 50 Milligrams/M^2 i.v. once weekly): 3.4 grams
- Therapeutic Results (Myelocytic leukemia): synergistic

SMILES: O=c1[nH]cc(F)c(=O)[nH]1 [Clone 5-FU, 5-fluorouracil]
- Therapeutic Results (Acute leukemia): additive
- Therapeutic Results (Myelocytic leukemia): additive
